From patent publication US8741970B2, “Composition and method for the enhancement of the efficacy of drugs” (Alchemia Oncology Pty Limited, priority 1999, dated 2014)
“And” between values parts separate entries of the source, which are not always exact repeats. Identical values can stand only once.

What was measured:
[1] = 1H NMR titration and diffusion experiments of 5-FU with HA; assay type: physicochemical; conditions: 600 MHz 1H NMR titration; HA 750 kDa, 3 mg/mL; pH 8.8 to 9.1
Protocol: To further investigate the nature of the interaction between HA and chemotherapeutic drugs 1H Nuclear Magnetic Resonance (NMR) spectroscopy was used. Deuterium oxide (^2H2O (99.96%)) was obtained from Cambridge Isotope Laboratories. MTX was obtained from Faulding Pharmaceuticals and 5-FU and HA stock solutions were prepared as described previously.
Spectra were recorded at 298 K on a Brüker DRX spectrometer operating at 600 MHz with a shielded gradient unit. The 2D experiments were recorded in phase-sensitive mode using time-proportional phase incrementation for quadrature detection in the t1 dimension (Marion & Wüthrich, 1983). The 2D experiments included TOCSY sequence using a MLEV-17 spin lock sequence (Bax & Davis, 1985) with a mixing time of 120 ms; NOESY (Kumar et al., 1980) with mixing times of 250 and 400 ms and ROESY spectrum with a mixing time of 250 ms. Temperature calibration of the probe was achieved by comparison to ethylene glycol chemical shifts. All chemical shifts (ppm) were referenced to the methyl resonance of 4,4-dimethyl-4-silapentane-1-sulfonate (DSS, 0 ppm).
NMR diffusion experiments were acquired on a Brüker AMX spectrometer equipped with a gradient control unit operating at 500 MHz. All experiments were acquired with 16 or 64 scans at 298 K over 16K of data points and 7575 Hz. A gradient strength of 15.44 G/cm was employed for the diffusion experiments. […]

[2] = iv 10.5 mg/kg (400 mg/m^2), within 30 min; cited from earlier work
MDA-MB-468 = assay: Drug cytotoxicity assay (cell count after 4 days in test media), MDA-MB-468; assay type: cell-based; conditions: Homo sapiens, 96 h, 5-FU alone
Protocol: A stock of HA solution (10 μM, 7 mg/ml) was prepared by dissolving desiccated HA (modal Mr 7×10^5 Da,) in 0.9% w/v pyrogen-free injection grade NaCl. To ensure a homogenous solution the HA was dissolved overnight at 4° C. followed by thorough vortexing. To ensure that ‘the HA had maintained its molecular weight during the preparation of the stock solution, the solution was analysed on a Sephacryl S-1000 size exclusion gel with column −40 specifications of 1.6 cm×70 cm, sample size 2 ml, flow rate 18.1/h and 2 ml fraction size. The HA was used at a final concentration of 1000 nm, with all dilutions made in the appropriate growth medium.
Based on these plasma concentrations in vivo the following drug concentrations were selected; 0, 1, 5, 10, 20, 50, 100 μM 5-FU±100 nM HA. […] When the cultures reached confluence the cells were removed from the flasks in 0.25% trypsin/0.05% EDTA. The single-cell suspension was counted with a Coulter counter (ZM1 model) and cells were resuspended to 100,000 cells/ml in cell-specific media. Cells were plated into 24-well plates (2 cm^2 surface area) by adding 0.5 ml of cell suspension per well, resulting in 50,000 cells/well. […] After 4 days of growth in test media the cultures were washed with HBSS, the cells removed from the well by trypsinisation with 0.25% trypsin/0.05% EDTA and cells were counted with a Coulter Counter.

[3] = in vivo; cited from earlier work
[4] = tested on: Human Breast Cancer Xenografts (MDA-MB-468); assay: 5-FU/HA adjuvant therapy efficacy, 6-week study; assay type: in vivo
Protocol: (§1) One of the most commonly used treatment regimens for human breast cancer is cyclophosphamide, methotrexate and 5-fluorouacil which is administered on day 1 and 8 of a 28 day cycle. In human breast cancer the initial treatment regimen is for 6 cycles at which time the patient condition is re-assessed, therefore we tried to simulate the human treatment regimen as closely as possible by exposing the mice to 6 cycles (6 months) of treatment in a long term efficacy study and a 6 cycles (6 week) short term efficacy study. Considering the life cycle of a mouse is approximately 2 years we commenced both short-term and long-term treatment protocols as shown in Table 8.
(§2) Mice were randomly divided into 7 groups of 8 animals per group for the short term study and 5 groups of 8 animals for the long term study (refer to Table 8 for dosage and treatment administration schedule).
(§3) Animals were weighed and tumour volumes measured on the day of treatment application for long term study as described in Example 8. In the 6-week study animals were weighed and tumour volumes measured on a daily basis. […] It has been experimentally proven that stress can be a major factor in a patients response to chemotherapy (Shackney et al, 1978), therefore we ensured that equal numbers of mice were allocated to each cage, the animal number per cage varied from 5-8 depending on the stage of experimentation.
(§4) The experimental end-point occurred when the animal had to be euthanised due to degree of disease progression or when the 6 month (long term) or 6 week (short term) treatment regimen was completed. Due to the animal ethics guidelines the animals were monitored fortnightly by an independent animal ethics officer who assessed the degree of disease progression.
The tissue was fixed for 16-24 h before histological processing. Fixed tissue was dehydrated stepwise to 100% ethanol and embedded in paraffin blocks from which 2-4 μm sections were placed on glass microscope slides. Staining the tissue sections with a haematoxylin nuclear stain and eosin cytoplasmic stain highlighted any pathological features that could indicate treatment toxicity.
Nine to 11 lymph nodes were collected per animal, ensuring that all nodes which drained the tumour area were collected. There are currently two methods used for the detection of lymph node metastasis:
The haematoxylin and eosin stained lymph nodes were examined by Dr P. Allen (certified pathologist) where each node was microscopically examined for the presence of tumour cells. The CEA immunostained lymph nodes were microscopically examined, where any positively stained nodes were counted and considered positive for lymph node metastasis.
Tumour volume was monitored on a daily or weekly basis by calliper measurements and tumour volume calculated as previously described in example 8.
One of the most common toxic effects of 5-FU is on the gastro-intestinal tract where haemorrhagic enteritis and intestinal perforation can occur (Martindale, 1993). Animals were monitored daily for GI tract upset such as diarrhoea and weekly for more severe toxicity manifestations such as weight loss. Weight loss was monitored by calculating net body weight as estimated by subtracting tumour weight, which was calculated as 1 g×tumour volume (cm^3) as cited in Shibamoto et al, 1996.

[5] = tested on: Human Breast Cancer Xenografts (MDA-MB-468); assay: 5-FU/HA adjuvant therapy efficacy, 6-month study; assay type: in vivo
Protocol: as §1, §2, §3, §4
The TDT is the time taken (days) for a tumour to double in mass or cell number, a parameter of tumour growth which is simple to measure and can be easily related to clinical tumour behaviour in conceptional terms (Shackney et al, 1978). By monitoring the tumour doubling time it is often possible to evaluate tumour chemotherapeutic response, as slowly growing tumours tend to respond poorly to chemotherapy (Schabel, 1975).
The overall patient survival time was calculated as the time (days or weeks) that the animal lived after the commencement of treatment.

[6] = tested on: murine Lewis lung xenografts; conditions: low dose of 0.01 mg/kg; cited from earlier work
[7] = 1H NMR deuterium exchange and transferred NOESY of MTX with HA; assay type: physicochemical
Text: Solvent suppression of the water signal for NOESY, ROESY and TOCSY experiments was achieved using a modified WATERGATE sequence (Piotto et al., 1992) in which two gradient pulses of 1 ms was applied on either side of a binomial 3-9-19 pulse. Spectra was routinely acquired over 6024 Hz with 4096 complex data points in F2 and 512 increments in the F1 dimension, with 32 scans per increment for the TOCSY experiments and 80 scans for the NOESY. Slowly exchanging NH protons were detected by acquiring a series of one-dimensional (1D) spectra acquired over 16K data points and with 32 scans. […]

[8] = control schedule HA D1,3 / 5-FU D 2, 4 of 7 day cycle

O=c1[nH]cc(F)c(=O)[nH]1 [5-FU, 5-fluorouracil]
interaction of 5-FU with HA (chemical shift of CH peak) [1]: does not appear to be interacting | peak plasma level [2]: 8 μg/ml and 61 μM | IC50 (MDA-MB-468): > 50 µM | cure rate [3]: 26% | primary tumour at end of the 6 week study compared with the saline group [4]: significantly smaller tumours | Number of animal completing treatment [4, 8]: 8/8 | TDT Mean ± SEM [4, 8]: 15.3 ± 2.5 days | % of animals with lymph node metastasis ([4]; days 1 & 2 of 7 day cycle): 100% | % of lymph node involved per animal mean ± SEM ([4]; days 1 & 2 of 7 day cycle): 14.3 ± 2.9% | Number of new tumours ([4]; days 1 & 2 of 7 day cycle): 1 | Number of animal completing treatment ([4]; days 1 & 2 of 7 day cycle (HA followed by 5-FU: days 1-4)): 8/8 | TDT Mean ± SEM ([4]; days 1 & 2 of 7 day cycle (HA followed by 5-FU: days 1-4), 30 mg/kg 5-FU, 12.5 mg/kg HA): 32.1 ± 3.5 days | Experimental endpoint: immobilsed ([5]; 6-month study, % of animals): 62.5% immobilsed | mice experiencing a cure (tumours fully necrosed and dropped off) ([5]; 6-month study, after approximately 12 weeks of treatment): did not experience a “cure” | TDT Mean ± SEM ([5]; 6-month study, days 1 & 8 of 28 day cycle (HA followed by 5-FU: days 1, 2, 8, 9)): 22.7 ± 2.9 days | Experimental endpoint: metabolic stress ([5]; mouse, in vivo): 37.5% metabolic

CO[C@@]12[C@H](COC(N)=O)C3=C(C(=O)C(C)=C(N)C3=O)N1C[C@@H]1N[C@@H]12 [mitomycin C]
anti-tumour activity [6]: did not demonstrate anti-tumour activity

CN(Cc1cnc2nc(N)nc(N)c2n1)c1ccc(C(=O)N[C@@H](CCC(=O)O)C(=O)O)cc1 [MTX, methotrexate]
time for all amine hydrogens of MTX to exchange with deuterium ([7]; MTX and HA in 0.5% w/v Na2CO3 (pH 9), deuterium oxide added): ≤ 4 min | interaction between MTX and HA (transferred NOESY) ([7]; MTX/HA, no crosspeaks): negligible interaction
